Measured values taken from patent publication EP0768085A1, “ANTIBACTERIAL AGENT” (DAIICHI PHARMACEUTICAL CO., LTD., priority 1994, dated 1996).
Converted amounts (≈) assume the structure as drawn.

Experiments:
[1] = Absorption test, concentration of the compounds in serum by HPLC; assay type: in vivo; settings: mouse, mice, 100 mg/kg body weight, oral administration, serum at 1, 3, 5 and 24 hours, read-out: time at which concentration in serum reached a maximum
Experimental: An absorption test was performed using ketonitrile derivatives of the present invention (Compound Nos. […] and 155) on mice by dosing the derivatives in amounts of 100 mg/kg body weight. One, three, five, and 24 hours after administration of the compounds, blood was harvested and serum was separated therefrom. The concentration of the compounds in serum was determined by HPLC. As a result, Compound No. 155 and Compound No. 101 reached a maximum in concentration after 1 hour and 3 hours of administration, respectively.

[2] = system: Pasteurella multocida (Kobe-6); assay: Antibacterial activity (IC), agar as in Example 8 (Example 17, Table 50); assay type: cell-based; settings: 18 h, origin pig
How it was run: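 Agar dilution on Mueller-Hinton agar with compound at 100, 10 and 1 µg/ml, inoculated at 10^6 CFU/ml with pig-origin strain Kobe-6. After 18 h at 37 °C, IC scored from turbidity and reported as a band (≤100, ≤10, ≤1 µg/ml).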

[3] = system: methicillin-resistant Staphylococcus aureus (MRSA) from humans; assay: Antibacterial activity (IC), agar as in Example 8 (Example 19, Table 52); assay type: cell-based; settings: 18 h
How it was run: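 MRSA human isolate at 10^6 CFU/ml on Mueller-Hinton agar containing compound at 100, 10 or 1 µg/ml, grown 18 h at 37 °C. IC is the lowest tested level that inhibited growth, binned as ≤100, ≤10 or ≤1 µg/ml.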

[4] = system: Streptococcus aureus (TI-1); assay: Antibacterial activity (IC), agar as in Example 8 (Example 16, Table 49); assay type: cell-based; settings: 18 h
How it was run: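 Compound at final 100, 10 or 1 µg/ml in Mueller-Hinton agar, inoculated with […] aureus (TI-1) at 10^6 CFU/ml and cultured 37°C for 18 h. Inhibition read from medium turbidity; IC given as 100-10, 10-1 or ≤1 µg/ml ranges from 2-fold dilution.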

Pasteurella from fish = assay: Antibacterial activity (IC), agar as in Example 8, media with 1.5% NaCl, 25°C (Example 20, Tables 53-55); assay type: cell-based; settings: for MIC: Pasteurella piscicida KP94-02
How it was run: (§1)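 Growth inhibition was scored by turbidity after culture at 25°C, with IC bands set from 2-fold-dilution MIC-equivalents. Samples were tested at final 100, 10 and 1 µg/ml in Mueller-Hinton agar with 1.5% NaCl, seeded with 10^6 CFU/ml of the fish isolates.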

Enterococcus from fish = assay: as above; assay type: cell-based; settings: for MIC: Enterococcus Seriolicida SE94-002
How it was run: as §1

in vivo = settings: mouse, oral administration, single dose, suspended in aqueous 0.5% CMC solution, male mice, observed for 14 days
Experimental: Acute toxicity (LD50) of a ketonitrile derivative of the present invention (Compound No. 4) was tested using male mice (Slc:ddY, 5 weeks old). To groups of each 5 mice, the compounds suspended in aqueous 0.5% CMC solution were forcibly dosed orally at a single time so that the final dosages of 707, 1,000, 1,414, and 2,000 mg/kg were attained. […] As a result, LD50 value under conditions of oral administration was estimated to be higher than 2,000 mg/kg. Thus, the compound was confirmed to be quite non-toxic.
To groups of each 5 mice, the compounds suspended in aqueous 0.5% CMC solution were forcibly dosed orally at a single time so that the final dosages of 500, 1,000, 1,500, and 2,000 mg/kg were attained. […] As a result, the LD50 value was estimated to be higher than 2,000 mg/kg. Thus, the compounds were confirmed to be quite non-toxic.

[5] = system: Staphylococcus aureus (209-P); assay: Antibacterial activity (IC), agar as in Example 8 (Example 15, Table 48); assay type: cell-based; settings: 18 h
How it was run: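 Samples in DMSO, diluted with sterile water, incorporated into Mueller-Hinton agar at 1, 10 and 100 µg/ml final. Bacteria seeded at 10^6 CFU/ml and grown 18 h at 37°C. Inhibition read as turbidity; values reported as IC ranges rather than exact MICs.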

[6] = system: Bordetella bronchiseptica (SM2-4); assay: Antibacterial activity (IC), agar as in Example 8 (Example 18, Table 51); assay type: cell-based; settings: 18 h
Experimental: (§2) The antibacterial action was evaluated by the inhibitory concentration (hereinafter abbreviated as IC) at which propagation of the bacteria cultured at 37°C for 18 hours was inhibited. Inhibition was determined by the turbidity of the medium. The expressions "IC≤100", "≤10", and "≤1" indicate that MIC-equivalent values obtained at the succesive […] dilution of the sample are 100-10 µg/ml, 10-1 µg/ml, and not more than 1 µg/ml, respectively. […] (In the subsequent Examples, the same rule applies correspondingly.) Table 39
(§3) A suitable amount of a sample was dissolved in dimethylsulfoxide (DMSO), after which the resulting solution was diluted with the same amount of sterilized distilled water to prepare a bulk sample of 1,000 µg/ml. Separately, a bacterial liquid for the test (methicillin-resistant Staphylococcus aureus (MRSA) isolated from humans) which had been cultured in Mueller-Hinton broth (product of DIFCO) was prepared and inoculated to a Mueller-Hinton agar (product of DIFCO) containing the sample so that the final inoculation amount of 10^6 CFU/ml was achieved. The final concentrations of the samples were 100, 10, and 1 µg/ml.
(§4) After culturing at 37°C for 18 hours, the antibacterial activity was evaluated in terms of IC in a manner similar to that described in Example 4.
(§5) In a manner similar to that described in Example 8, antibacterial activity of the invention compound was determined. The bacterium used for the test was Bordetella bronchiseptica (S1) and Bordetella bronchiseptica (SM2-4).

[7] = system: Bordetella bronchiseptica (S1); assay: as above; assay type: cell-based; settings: 18 h
Experimental: as §2, §3, §4, §5

[8] = Enterococcus Seriolicida KG86050
[9] = Enterococcus Seriolicida MS89060
[10] = Enterococcus Seriolicida MS89064
[11] = Enterococcus Seriolicida MS89066
[12] = Enterococcus Seriolicida MS89068
[13] = Enterococcus Seriolicida SE94-001
[14] = Enterococcus Seriolicida SE94-003
[15] = Enterococcus Seriolicida SE94-004
[16] = Enterococcus Seriolicida SE94-005

Structure (SMILES)	Tmax [1] [h]	MIC [2] [µg/mL]	MIC ([3]; MRSA strain 891179) [µg/mL]	MIC ([3]; MRSA strain 891185) [µg/mL]	MIC ([3]; MRSA strain 891187) [µg/mL]	MIC ([3]; MRSA strain 891192) [µg/mL]	MIC ([3]; MRSA strain 900048) [µg/mL]	MIC ([3]; MRSA strain 900056) [µg/mL]	MIC [4] [µg/mL]	MIC (Pasteurella from fish) [µg/mL]	IC (Pasteurella from fish; Pasteurella piscicida KP94-04)	IC (Pasteurella from fish; Pasteurella piscicida KP94-05)	IC (Pasteurella from fish; Pasteurella piscicida KP94-06)	IC (Enterococcus from fish; Enterococcus Seriolicida HI) [µg/mL]	IC (Enterococcus from fish; [8]) [µg/mL]	IC (Enterococcus from fish; [9]) [µg/mL]	IC (Enterococcus from fish; [10]) [µg/mL]	IC (Enterococcus from fish; [11]) [µg/mL]	IC (Enterococcus from fish; [12]) [µg/mL]	IC (Enterococcus from fish; [13]) [µg/mL]	further results
CC(Oc1cccc(Oc2ncc(C(F)(F)F)cc2Cl)c1)C(=O)C(C#N)c1ccc(Cl)c(Cl)c1 (stereo not drawn) [Compound No. 101, 4-[3-(3-chloro-5-trifluoromethyl-2-pyridyloxy)phenoxy]-2-(3,4-dichlorophenyl)-3-oxopentanonitrile]	3	–	–	–	–	–	–	–	–	–	–	–	–	–	–	–	–	–	–	–	–
CC(Oc1cccc(Oc2ccc(C(F)(F)F)cc2Cl)c1)C(=O)C(C#N)c1ccc(Cl)c(Cl)c1 (stereo not drawn) [Compound No. 103, 4-[3-(2-chloro-4-trifluoromethylphenoxy)phenoxy]-2-(3,4-dichlorophenyl)-3-oxopentanonitrile]	–	1 to 10 (≈ 1.89 to 18.9 µM)	≤ 1	≤ 1	≤ 1	≤ 1	≤ 1	≤ 1	≤ 1	1 to 10 (≈ 1.89 to 18.9 µM)	≤10 (10-1 µg/ml)	≤10 (10-1 µg/ml)	≤10 (10-1 µg/ml)	≤ 1	≤ 1	≤ 1	≤ 1	≤ 1	≤ 1	≤ 1	MIC (Enterococcus from fish): ≤ 1 µg/mL; IC (Enterococcus from fish; [14]): ≤ 1 µg/mL; IC (Enterococcus from fish; [15]): ≤ 1 µg/mL; IC (Enterococcus from fish; [16]): ≤ 1 µg/mL; LD50 at 336 h (in vivo): > 2000 mg/kg; MIC [5]: ≤ 1 µg/mL
CC(Oc1cc(Oc2ccc(C(F)(F)F)cc2Cl)ccc1Cl)C(=O)C(C#N)c1cccc(Br)c1 (stereo not drawn) [Compound No. 155, 2-(3-bromophenyl)-4-[5-(2-chloro-4-trifluoromethylphenoxy)-2-chlorophenoxy]-3-oxopentanonitrile]	1	10 to 100 (≈ 17.4 to 174 µM)	≤ 1	≤ 1	≤ 1	≤ 1	≤ 1	≤ 1	≤ 1	10 to 100 (≈ 17.4 to 174 µM)	≤100 (MIC-equivalent values obtained at the succesive 2-fold dilution of the sample are 100-10 µg/ml)	≤100 (MIC-equivalent values obtained at the succesive 2-fold dilution of the sample are 100-10 µg/ml)	≤100 (MIC-equivalent values obtained at the succesive 2-fold dilution of the sample are 100-10 µg/ml)	≤ 1	≤ 1	≤ 1	≤ 1	≤ 1	≤ 1	≤ 1	MIC (Enterococcus from fish): ≤ 1 µg/mL; IC (Enterococcus from fish; [14]): ≤ 1 µg/mL; IC (Enterococcus from fish; [15]): ≤ 1 µg/mL; IC (Enterococcus from fish; [16]): ≤ 1 µg/mL; MIC [6]: 10 to 100 µg/mL (≈ 17.4 to 174 µM); MIC [7]: 10 to 100 µg/mL (≈ 17.4 to 174 µM); LD50 at 336 h (in vivo): > 2000 mg/kg; MIC [5]: ≤ 1 µg/mL
